Target: T1, OBP49a (Drosophila melanogaster, UniProt A1Z947)
T1 sequence (A1Z947 23-212): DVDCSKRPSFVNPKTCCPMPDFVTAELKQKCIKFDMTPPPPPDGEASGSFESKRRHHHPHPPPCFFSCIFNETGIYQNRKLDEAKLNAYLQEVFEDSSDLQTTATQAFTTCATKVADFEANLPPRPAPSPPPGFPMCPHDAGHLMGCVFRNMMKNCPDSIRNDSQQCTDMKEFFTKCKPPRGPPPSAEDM
Assay: surface plasmon resonance
Assay type: binding
Conditions: pH 7.4; 25 °C; HBS-P (10 mM HEPES, 150 mM NaCl, 0.005 % Surfactant P20); dose-dependent

Row | SMILES | surface plasmon resonance (BIAcore 3000, OBP49a on CM5 chip)
1 | C=C[C@H]1CN2CC[C@H]1C[C@H]2[C@H](O)c1ccnc2ccc(OC)cc12 [quinine] | berberine, denatonium and quinine bound to OBP49a in a dosedependent manner
2 | CC[N+](CC)(CC(=O)Nc1c(C)cccc1C)Cc1ccccc1 [denatonium] | berberine, denatonium and quinine bound to OBP49a in a dosedependent manner
3 | COc1ccc2cc3[n+](cc2c1OC)CCc1cc2c(cc1-3)OCO2 [berberine] | berberine, denatonium and quinine bound to OBP49a in a dosedependent manner

From PMC3753695 (Neuron, 2013)
